# US9611262B2, “Substituted 2-azabicycles and their use as orexin receptor modulators” (JANSSEN PHARMACEUTICA NV, priority 2014, dated 2017)
# Biological target: human orexin 2 receptor (Homo sapiens (Human), UniProt O43614)
# Experiment: Human orexin 2 receptor radioligand binding ([3H]-EMPA competition)
# Conditions: HEK293 stably expressing human orexin 2 receptor; 2 nM [3H]-EMPA; averages of 2-20 runs; read-out: hOX2 Ki
# Protocol: The in vitro affinity of the compounds of the invention for the rat/human orexin 1 and human orexin 2 receptors was determined by competitive radioligand binding using [^3H](1-(5-(2-fluoro-phenyl)-2-methyl-thiazol-4-yl)-1-((S)-2-(5-phenyl-(1,3,4)oxadiazol-2-ylmethyl)-pyrrolidin-1-yl)-methanone) (Langmead et al., 2004) and [^3H]EMPA (n-ethyl-2[96-methoxy-pyridin-3-yl)-(toluene-2-sulfonyl)-amino]-N-pyridin-3-ylmethyl acetamide), respectively (Langmead et al., 2004, British Journal of Pharmacology 141:340-346; Malherbe et al., 2004, British Journal of Pharmacology 156:1326-41).
# Data are analyzed using pc-Sandy macro and graphed on Graphpad Prism 5. For analysis, each concentration point is averaged from triplicate values and the averaged values are plotted on Graphpad Prism. The IC50 was determined by applying the following equation (GraphPad Prism 5.0, San Diego) for one site competition where X=log (concentration) and Y=specific binding. Top denotes the total [^3H]— (1-(5-(2-fluoro-phenyl)-2-methyl-thiazol-4-yl)-1-((S)-2-(5-phenyl-(1,3,4)oxadiazol-2-ylmethyl)-pyrrolidin-1-yl)-methanone) binding, bottom denotes the nonspecific [^3H]— (1-(5-(2-fluoro-phenyl)-2-methyl-thiazol-4-yl)-1-((S)-2-(5-phenyl-(1,3,4)oxadiazol-2-ylmethyl)-pyrrolidin-1-yl)-methanone) binding. Graphpad Prism calculates Ki value from IC50 and the pre-determined Kd values for [^3H]— (1-(5-(2-fluoro-phenyl)-2-methyl-thiazol-4-yl)-1-((S)-2-(5-phenyl-(1,3,4)oxadiazol-2-ylmethyl)-pyrrolidin-1-yl)-methanone) and [^3H]-EMPA. The Ki for each compound is then uploaded into 3DX. Each run comprises individual compounds in triplicate. The data in Table 1 and Table 2 represent averages from between 2-20 runs
# Human Orexin 2 Receptor Radioligand Binding Studies
# HEK293 stably expressing human orexin 2 receptor (Genebank accession number NM_001526) were grown to confluency in DMEM (Hyclone, cat # SH30022), 10% FBS, 1× Pen/Strep, 1× NaPyruvate, 10 mM HEPES, 600 μg/ml G418 media on 150 cm^2 tissue culture plates, washed with 5 mM EDTA in PBS (HyClone Dulbecco's Phosphate Buffered Saline 1× with Calcium and Magnesium, Cat # SH30264.01, hereafter referred to simply as PBS) and scraped into 50 ml tubes. After centrifugation (2K×G, 5 min at 4° C.), the supernatant was aspirated and the pellets frozen and stored at −80° C. Cells were resuspended in PBS in the presence of 1 tablet of protease inhibitor cocktail (Roche, Cat. #11836145001) per 50 mL. […] Compounds were solubilized in 100% DMSO (Acros Organics, Cat. #61042-1000) and tested over a range of 7 concentration (from 0.1 nM to 10 μM). The final concentration of DMSO in the reactions is equal to or less than 0.1%. Total and nonspecific binding was determined in the absence and presence of 10 μM almorexant. The total volume of each reaction is 200 μL (20 μL of diluted compounds, 80 μL of [^3H]-EMPA diluted in PBS and 100 μL of the cell suspension). Reactions were run for 60 min at room temperature and terminated by filtration through GF/C filter plates (PerkinElmer, Cat. #6005174) presoaked in 0.3% polyethylenimine using the cell harvester (PerkinElmer Filtermate). The plates were washed 3 times by aspirating 30 ml PBS through the plates. Plates were dried in 55° C. oven for 60 min, scintillation fluid was added, and the radioactivity was counted on a Topcount (Packard).
# human orexin 2 receptor, sequence (O43614 whole entry): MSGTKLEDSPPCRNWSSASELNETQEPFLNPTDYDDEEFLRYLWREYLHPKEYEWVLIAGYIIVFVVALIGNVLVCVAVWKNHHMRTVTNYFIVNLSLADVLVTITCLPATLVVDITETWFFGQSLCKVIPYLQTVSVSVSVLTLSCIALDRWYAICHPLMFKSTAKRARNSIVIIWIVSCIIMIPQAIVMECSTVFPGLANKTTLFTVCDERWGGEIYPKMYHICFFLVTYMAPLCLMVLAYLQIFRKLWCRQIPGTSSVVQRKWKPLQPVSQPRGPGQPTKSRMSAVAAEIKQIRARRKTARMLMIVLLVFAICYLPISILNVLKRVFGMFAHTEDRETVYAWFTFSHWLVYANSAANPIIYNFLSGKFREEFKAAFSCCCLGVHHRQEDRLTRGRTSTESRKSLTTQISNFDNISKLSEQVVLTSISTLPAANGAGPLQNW
row,Ki,SMILES
1,324 nM,"C[C@@H]1[C@H]2C[C@@H](Nc3ccc(C(F)(F)F)cn3)[C@H](C2)N1C(=O)c1ncccc1-n1nccn1 (relative stereo) [Example 64, (3-(2H-1,2,3-triazol-2-yl)pyridin-2-yl)((1S*,3R*,4S*,6R*)-3-methyl-6-((5-(trifluoromethyl)pyridin-2-yl)amino)-2-azabicyclo[2.2.1]heptan-2-yl)methanone]"
2,183 nM,"C[C@@H]1[C@H]2C[C@@H](Nc3ccc(C(F)(F)F)cn3)[C@H](C2)N1C(=O)c1cccc(F)c1-n1nccn1 (relative stereo) [Example 65, (3-fluoro-2-(2H-1,2,3-triazol-2-yl)phenyl)((1S*,3R*,4S*,6R*)-3-methyl-6-((5-(trifluoromethyl)pyridin-2-yl)amino)-2-azabicyclo[2.2.1]heptan-2-yl)methanone]"
3,317 nM,"Cc1cnc(C(=O)N2[C@H](C)[C@H]3C[C@@H](Nc4ccc(C(F)(F)F)cn4)[C@@H]2C3)c(-n2nccn2)c1 (relative stereo) [Example 66, (5-methyl-3-(2H-1,2,3-triazol-2-yl)pyridin-2-yl)((1S*,3R*,4S*,6R*)-3-methyl-6-((5-(trifluoromethyl)pyridin-2-yl)amino)-2-azabicyclo[2.2.1]heptan-2-yl)methanone]"
4,195 nM,"Cc1ccc(-n2nccn2)c(C(=O)N2[C@H](C)[C@H]3C[C@@H](Oc4cnc5ccccc5n4)[C@@H]2C3)n1 (relative stereo) [Example 183, (6-methyl-3-(2H-1,2,3-triazol-2-yl)pyridin-2-yl)((1S*,3R*,4R*,6R*)-3-methyl-6-(quinoxalin-2-yloxy)-2-azabicyclo[2.2.1]heptan-2-yl)methanone]"
5,61 nM,"Cc1ccc(-n2nccn2)c(C(=O)N2[C@H](C)[C@H]3C[C@@H](Oc4cnc5ccccc5c4)[C@@H]2C3)n1 (relative stereo) [Example 185, (6-methyl-3-(2H-1,2,3-triazol-2-yl)pyridin-2-yl)((1S*,3R*,4R*,6R*)-3-methyl-6-(quinolin-3-yloxy)-2-azabicyclo[2.2.1]heptan-2-yl)methanone]"
6,123 nM,"C[C@@H]1[C@H]2C[C@@H](Oc3cnc4cc(F)c(F)cc4n3)[C@H](C2)N1C(=O)c1cccc(F)c1-n1nccn1 (relative stereo) [Example 190, ((1S*,3R*,4R*,6R*)-6-((6,7-difluoroquinoxalin-2-yl)oxy)-3-methyl-2-azabicyclo[2.2.1]heptan-2-yl)(3-fluoro-2-(2H-1,2,3-triazol-2-yl)phenyl)methanone]"
7,72 nM,"C[C@@H]1[C@H]2C[C@@H](Oc3cnc4cc(F)c(F)cc4n3)[C@H](C2)N1C(=O)c1ccccc1-n1nccn1 (relative stereo) [Example 191, (2-(2H-1,2,3-triazol-2-yl)phenyl)((1S*,3R*,4R*,6R*)-6-((6,7-difluoroquinoxalin-2-yl)oxy)-3-methyl-2-azabicyclo[2.2.1]heptan-2-yl)methanone]"
8,> 10000 nM,"CC1C2CC(Nc3cnc(C(F)(F)F)cn3)C(C2)N1C(=O)c1ccccc1-n1nccn1 (single isomer, unassigned) [Example 68A, (2-(2H-1,2,3-triazol-2-yl)phenyl)((1R*,3S*,4R*,6S*)-3-methyl-6-((5-(trifluoromethyl)pyrazin-2-yl)amino)-2-azabicyclo[2.2.1]heptan-2-yl)methanone]"

# Second part, the compound before the results:
row,SMILES,Ki
1,"CC1C2CC(Nc3cnc(C(F)(F)F)cn3)C(C2)N1C(=O)c1ccccc1-n1nccn1 (single isomer, unassigned) [Example 5A, (2-(2H-1,2,3-triazol-2-yl)phenyl)((1R*,3R*,4R*,6S*)-3-methyl-6-((5-(trifluoromethyl)pyrazin-2-yl)amino)-2-azabicyclo[2.2.1]heptan-2-yl)methanone]",> 10000 nM
2,"CC1C2CC(Nc3cnc(C(F)(F)F)cn3)C(C2)N1C(=O)c1ccccc1-n1nccn1 (single isomer, unassigned) [Example 5B, (2-(2H-1,2,3-triazol-2-yl)phenyl)((1S*,3S*,4S*,6R*)-3-methyl-6-((5-(trifluoromethyl)pyrazin-2-yl)amino)-2-azabicyclo[2.2.1]heptan-2-yl)methanone]",146 nM
3,"Cc1ccc(-n2nccn2)c(C(=O)N2C(C)C3CC(Nc4cnc(C(F)(F)F)cn4)C2C3)n1 (single isomer, unassigned) [Example 6, (R/S)-(6-methyl-3-(2H-1,2,3-triazol-2-yl)pyridin-2-yl)(3-methyl-6-((5-(trifluoromethyl)pyrazin-2-yl)amino)-2-azabicyclo[2.2.1]heptan-2-yl)methanone]",664 nM
4,"Cc1ccc(-n2nccn2)c(C(=O)N2C(C)C3CC(Nc4cnc(C(F)(F)F)cn4)C2C3)n1 (single isomer, unassigned) [Example 6A, (6-methyl-3-(2H-1,2,3-triazol-2-yl)pyridin-2-yl)((1R*,3R*,4R*,6S*)-3-methyl-6-((5-(trifluoromethyl)pyrazin-2-yl)amino)-2-azabicyclo[2.2.1]heptan-2-yl)methanone]",> 10000 nM
5,"Cc1ccc(-n2nccn2)c(C(=O)N2C(C)C3CC(Nc4cnc(C(F)(F)F)cn4)C2C3)n1 (single isomer, unassigned) [Example 6B, (6-methyl-3-(2H-1,2,3-triazol-2-yl)pyridin-2-yl)((1S*,3S*,4S*,6R*)-3-methyl-6-((5-(trifluoromethyl)pyrazin-2-yl)amino)-2-azabicyclo[2.2.1]heptan-2-yl)methanone]",154 nM
6,"CC1C2CC(Oc3ccc(C(F)(F)F)cn3)C(C2)N1C(=O)c1ccc(F)cc1-c1ncccn1 (single isomer, unassigned) [Example 17A, (4-fluoro-2-(pyrimidin-2-yl)phenyl)((1R*,3S*,4S*,6S*)-3-methyl-6-((5-(trifluoromethyl)pyridin-2-yl)oxy)-2-azabicyclo[2.2.1]heptan-2-yl)methanone]",> 10000 nM
7,"CC1C2CC(Oc3ccc(C(F)(F)F)cn3)C(C2)N1C(=O)c1ccc(F)cc1-c1ncccn1 (single isomer, unassigned) [Example 17B, (4-fluoro-2-(pyrimidin-2-yl)phenyl)((1S*,3R*,4R*,6R*)-3-methyl-6-((5-(trifluoromethyl)pyridin-2-yl)oxy)-2-azabicyclo[2.2.1]heptan-2-yl)methanone]",947 nM
8,"CC1C2CC(Oc3ccc(C(F)(F)F)cn3)C(C2)N1C(=O)c1cc(F)ccc1-c1ncccn1 (single isomer, unassigned) [Example 18A, (5-fluoro-2-(pyrimidin-2-yl)phenyl)((1R*,3S*,4S*,6S*)-3-methyl-6-((5-(trifluoromethyl)pyridin-2-yl)oxy)-2-azabicyclo[2.2.1]heptan-2-yl)methanone]",> 10000 nM
9,"CC1C2CC(Oc3ccc(C(F)(F)F)cn3)C(C2)N1C(=O)c1cc(F)ccc1-c1ncccn1 (single isomer, unassigned) [Example 18B, (5-fluoro-2-(pyrimidin-2-yl)phenyl)((1S*,3R*,4R*,6R*)-3-methyl-6-((5-(trifluoromethyl)pyridin-2-yl)oxy)-2-azabicyclo[2.2.1]heptan-2-yl)methanone]",879 nM
10,"CC1C2CC(Oc3ccc(C(F)(F)F)cn3)C(C2)N1C(=O)c1cccc(F)c1-c1ncc(F)cn1 (single isomer, unassigned) [Example 20A, (3-fluoro-2-(5-fluoropyrimidin-2-yl)phenyl)((1R*,3S*,4S*,6S*)-3-methyl-6-((5-(trifluoromethyl)pyridin-2-yl)oxy)-2-azabicyclo[2.2.1]heptan-2-yl)methanone]",> 10000 nM
11,"CC1C2CC(Oc3ccc(C(F)(F)F)cn3)C(C2)N1C(=O)c1cccc(F)c1-c1ncc(F)cn1 (single isomer, unassigned) [Example 20B, (3-fluoro-2-(5-fluoropyrimidin-2-yl)phenyl)((1S*,3R*,4R*,6R*)-3-methyl-6-((5-(trifluoromethyl)pyridin-2-yl)oxy)-2-azabicyclo[2.2.1]heptan-2-yl)methanone]",1890 nM
